From patent EP0943606A1, “BENZENESULFONAMIDE DERIVATIVES AND DRUGS CONTAINING THE SAME” (HOKURIKU SEIYAKU CO., LTD., priority 1996, dated 1998)

Tests used:
leukotriene D4 = biological target: T1, leukotriene D4 (Cavia porcellus, UniProt Q2NNR5); assay: Leukotriene D4 antagonistic effect (isolated trachea, leukotriene D4 concentration-response curves, Schild); set-up: species or system male Hartley guinea-pigs; conditions: isolated guinea-pig trachea, contraction by leukotriene D4, test compound treatment 30 minutes, indomethacin 1 × 10^-6M, method of Schild
T1 construct: tracheas were isolated from male Hartley guinea-pigs, and spiral specimens of approximately 2 cm length were prepared; from tissue; host or cells: isolated guinea-pig trachea (spiral strips)
T1 sequence (Q2NNR5 1-340): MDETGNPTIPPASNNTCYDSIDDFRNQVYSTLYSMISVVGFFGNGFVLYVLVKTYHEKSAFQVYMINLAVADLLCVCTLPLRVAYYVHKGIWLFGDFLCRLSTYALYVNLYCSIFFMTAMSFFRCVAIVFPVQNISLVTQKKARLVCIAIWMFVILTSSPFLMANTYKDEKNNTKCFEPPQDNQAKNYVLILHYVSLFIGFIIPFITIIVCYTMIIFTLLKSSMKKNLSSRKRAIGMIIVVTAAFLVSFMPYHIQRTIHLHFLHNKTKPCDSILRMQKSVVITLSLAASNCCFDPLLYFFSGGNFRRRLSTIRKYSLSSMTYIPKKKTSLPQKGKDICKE
Procedure: According to an ordinary method, tracheas were isolated from male Hartley guinea-pigs, and spiral specimens of approximately 2 cm length were prepared. These specimens were suspended isotonically in organ baths that contained Krebs-Henseleit solution at 37°C under a resting tension of 0.5g. After contractions with acetylcholine (1 × 10^-5M; Ovisot for injection, Daiichi Seiyaku), and the first concentration-response curves were obtained by cumulative applications of 10^-10 to 10^-8M of leukotriene D4 (ULTRA FINE) in the organ baths. After treatments with test compounds at adequate concentrations for 30 minutes, the second concentration-response curves were obtained in the same manner as the first applications. pKB values were calculated using these two concentration-response curves according to the method of Schild [Pharmacological Review, Vol. 9, 242 (1957)]. Indomethacin (1 × 10^-6M, Sigma) was added beforehand to the organ bath to eliminate possible affections by thromboxane A2 and prostaglandin produced by stimulus of leukotriene D4 [Japan J. Pharmacol., Vol. 60, 227 (1992)]. […]

human liver microsomes = assay: In vitro metabolism test; format: in vitro ADME; conditions: 0.4mg protein/ml human liver microsomes, 0.02 mM test compound, NADPH-generating system, 37°C for 30 minutes, HPLC
Procedure: 0.05 mM EDTA-0.1M phosphate buffer (pH 7.4), distilled water, 0.4mg protein/ml human liver microsomes and 0.02 mM test compound were mixed in a test tube under ice-cooling. After the mixture was shaken at 37°C for 2 minutes beforehand, the mixture was added with a ready-mix of NADPH-generating system and then shaken at 37°C for 30 minutes. After the incubation, the reaction was stopped by cooling with ice. The mixture was added with acetonitrile and well mixted, and then centrifuged at 3000 rpm for 10 minutes. The resulting supernatant was subjected to HPLC measurement, and the residual rate of test compound was calculated from the ratio of a peak area of an unchanged compound in the reaction sample in comparison with a non-reaction mixture. Preparations of reagents and reaction mixtures were carried out by referring to Shin Seikagaku Koza, Vol. 5: Biological oxidation and drug metabolism edited by The Japanese Biochemical Society. […]

[1] = biological target: T2, thromboxane A2 / prostaglandin H2 receptor (Cavia porcellus, UniProt A0A286Y4I8); assay: Thromboxane A2 antagonistic effect (isolated trachea, U-46619 concentration-response curves, Schild); set-up: species or system male Hartley guinea-pigs; conditions: isolated guinea-pig trachea, contraction by U-46619, test compound treatment 5 minutes, indomethacin 3 × 10^-6M, method of Schild
T2 construct: tracheas were isolated from male Hartley guinea-pigs, and spiral specimens of approximately 2 cm length were prepared; from tissue; host or cells: isolated guinea-pig trachea (spiral strips)
T2 sequence (A0A286Y4I8 1-347): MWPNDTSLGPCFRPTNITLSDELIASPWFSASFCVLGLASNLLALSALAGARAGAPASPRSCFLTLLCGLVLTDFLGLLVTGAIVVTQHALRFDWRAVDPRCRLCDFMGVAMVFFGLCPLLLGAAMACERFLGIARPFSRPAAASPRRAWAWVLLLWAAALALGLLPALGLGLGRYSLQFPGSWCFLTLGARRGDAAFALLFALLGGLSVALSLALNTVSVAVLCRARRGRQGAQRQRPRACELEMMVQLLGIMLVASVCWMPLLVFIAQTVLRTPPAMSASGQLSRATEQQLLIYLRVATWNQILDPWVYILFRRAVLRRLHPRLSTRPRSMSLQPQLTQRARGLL
Procedure: According to an ordinary method, tracheas were isolated from male Hartley guinea-pigs, and spiral specimens of approximately 2 cm length were prepared. These specimens were suspended in organ baths that contained Krebs-Henseleit solution at 37°C under a resting tension of 1.5 g, and the changes in isometric tension were recorded. The first concentration-response curves were obtained by cumulative applications of 1 × 10^-9 to 3 × 10^-7M of U-46619 (Cayman, thromboxane A2 / prostaglandin H2 receptor agonist) in the organ baths. After treatments with test compounds at adequate concentrations for 5 minutes, the second concentration-response curves were obtained in the same manner as the first applications. pKB values were calculated using these two concentration-response curves according to the method of Schild [Pharmacological Review, Vol. 9, 242 (1957)]. Indomethacin (3 × 10^-6M, Sigma) was added beforehand to the organ bath to eliminate possible affections by thromboxane A2 and prostaglandin produced endogenously [Japan J. Pharmacol., Vol. 60, 227 (1992)].

[2] = test system: bronchoconstriction induced by U-46619; assay: Inhibitory effect on bronchoconstriction induced by U-46619 (Konzett-Roessler); format: in vivo, Male Hartley guinea-pigs; conditions: Cavia porcellus; 0.3 mg/kg orally, 2 hours before U-46619 (4 µg/kg, cervical vein), anesthetized guinea-pigs, compared to control group; read-out: Inhibition rate (%)
Procedure: Airway resistance was evaluated according to the method of Konzett-Roessler [Naunyn-Schmiedberg's Arch. Exp. Path. Pharmak., Vol. 195, 71 (1940)]. Male Hartley guinea-pigs (about 400g wt.) were anesthetized with urethane (1.5g/kg, i.p.) and ventilated by an artificial respirator (Model 683; Harvard). At the same time, overflowed air volume above the pressure of about 12cm H2O was measured by using a sensor (Model 7020; Ugo Basile) and the value was used as an index of bronchoconstriction. 0.3 mg/kg (5 ml/kg) of test compounds suspended in 5% gum Arabic was administered orally to the guinea-pigs fasted beforehand for 24 hours. After 2 hours, U-46619 (4 µg/kg; Cayman) was administered through the cervical vein, and then maximal response was measured. Inhibitory rates compared to the control group were calculated based on the response rate normalized by the complete closure as 100%. […]

[3] = test system: bronchoconstriction induced by leukotriene D4; assay: Inhibitory effect on bronchoconstriction induced by leukotriene D4 (Konzett-Roessler); format: in vivo, Male Hartley guinea-pigs; conditions: Cavia porcellus; oral administration 2 hours before leukotriene D4 (1 µg/kg, cervical vein), anesthetized guinea-pigs, indomethacin and propranolol pretreated
Procedure: Airway resistance was evaluated according to the method of Konzett-Roessler [Naunyn-Schmiedberg's Arch. Exp. Path. Pharmak., Vol. 195, 71 (1940)]. Male Hartley guinea-pigs fasted beforehand for 24 hours were anesthetized with urethane, and then overflowed air volume was measured under artificial ventilation as an index of bronchoconstriction. Various doses of test compounds suspended in 5% gum Arabic were administered orally, and after 2 hours, leukotriene D4 (1 µg/kg; ULTRA FINE) was administered through the cervical vein. Then, values at 2 minutes were measured when maximum responses were obtained. Inhibitory rates compared to the control group were calculated based on the response rate normalized by the overflowed volume at complete closure as 100% bronchoconstriction rate, and the 50% inhibitory doses (ED50 values) were calculated using dose-inhibitory rate curves. Indomethacin (2mg/kg, i.v.) and propranolol (1mg/kg, i.v.) were administered at 10 minutes and 5 minutes before the administration of leukotriene D4, respectively. […]

In the case of O=C(O)CCCc1ccc(C(CCCC(F)(F)C(F)(F)F)NS(=O)(=O)c2ccc(Cl)cc2)s1 (centres unmarked) [Example 162, 4-[5-[1-(4-Chlorophenylsulfonylamino)-5,5,6,6,6-pentafluorohexyl]-2-thienyl]butyric Acid], the Kb (leukotriene D4) is reported as 251 nM, the “Residual rate (%)” value (human liver microsomes) is reported as 72% and the Kb [1] is reported as 0.398 nM. It also gave an inhibition in vivo at 0.3 mg/kg [2] of 85% and an ED50 [3] of 1.3 mg/kg.

For O=C(O)CCCc1ccc(C(CCCC(F)(F)C(F)(F)F)NS(=O)(=O)c2ccc(F)cc2)s1 (centres unmarked) [Example 163, 4-[5-[5,5,6,6,6-Pentafluoro-1-(4-fluorophenylsulfonylamino)hexyl]-2-thienyl]butyric Acid], the Kb (leukotriene D4) was 398 nM, the “Residual rate (%)” value (human liver microsomes) was 87% and the Kb [1] was 0.794 nM. For the same compound, the inhibition in vivo at 0.3 mg/kg [2] was 92% and the ED50 [3] was 0.78 mg/kg.

For O=C(O)CCCc1ccc(C(CCCCCC(F)(F)F)NS(=O)(=O)c2ccc(F)cc2)s1 (centres unmarked) [Example 172, 4-[5-[7,7,7-Trifluoro-1-(4-fluorophenylsulfonylamino)heptyl]-2-thienyl]butyric Acid], the Kb (leukotriene D4) was 251 nM, the “Residual rate (%)” value (human liver microsomes) was 84% and the Kb [1] was 0.398 nM. It also gave an inhibition in vivo at 0.3 mg/kg [2] of 73% and an ED50 [3] of 2.4 mg/kg.

In the case of O=C(O)CCCc1ccc(C(CCC(F)(F)C(F)(F)C(F)(F)F)NS(=O)(=O)c2ccc(F)cc2)s1 (centres unmarked) [Example 176, 4-[5-[4,4,5,5,6,6,6-Heptafluoro-1-(4-fluorophenylsulfonylamino)hexyl]-2-thienyl]butyric Acid], the Kb (leukotriene D4) is reported as 126 nM, the “Residual rate (%)” value (human liver microsomes) is reported as 86% and the Kb [1] is reported as 3.16 nM. For the same compound, the inhibition in vivo at 0.3 mg/kg [2] was 78% and the ED50 [3] was 0.14 mg/kg.

O=C(O)CCCc1ccc(C(CCCC(F)(F)C(F)(F)C(F)(F)F)NS(=O)(=O)c2ccc(Cl)cc2)s1 (centres unmarked) [Example 177, 4-[5-[1-(4-Chlorophenylsulfonylamino)-5,5,6,6,7,7,7-heptafluoroheptyl]-2-thienyl]butyric Acid] was tested, and the Kb (leukotriene D4) was 398 nM, the “Residual rate (%)” value (human liver microsomes) was 87% and the Kb [1] was 6.31 nM. For the same compound, the inhibition in vivo at 0.3 mg/kg [2] was 93% and the ED50 [3] was 0.69 mg/kg.

For O=C(O)CCCc1ccc(C(CCCC(F)(F)C(F)(F)C(F)(F)F)NS(=O)(=O)c2ccc(F)cc2)s1 (centres unmarked) [Example 178, 4-[5-[5,5,6,6,7,7,7-Heptafluoro-1-(4-fluorophenylsulfonylamino)heptyl]-2-thienyl]butyric Acid], the Kb (leukotriene D4) was 398 nM, the “Residual rate (%)” value (human liver microsomes) was 84% and the Kb [1] was 3.16 nM. The inhibition in vivo at 0.3 mg/kg [2] was 89% and the ED50 [3] was 0.67 mg/kg.

For O=C(O)CCCc1ccc(C(CCC(F)(F)C(F)(F)C(F)(F)C(F)(F)F)NS(=O)(=O)c2ccc(F)cc2)s1 (centres unmarked) [Example 179, 4-[5-[4,4,5,5,6,6,7,7,7-Nonafluoro-1-(4-fluorophenylsulfonylamino)heptyl]-2-thienyl]butyric Acid], the Kb (leukotriene D4) was 100 nM, the “Residual rate (%)” value (human liver microsomes) was 78% and the Kb [1] was 7.94 nM. For the same compound, the inhibition in vivo at 0.3 mg/kg [2] was 93% and the ED50 [3] was 0.17 mg/kg.

For O=C(O)CCCc1ccc(C(CCCC(F)(C(F)(F)F)C(F)(F)F)NS(=O)(=O)c2ccc(F)cc2)s1 (centres unmarked) [Example 183, 4-[5-[5,6,6.6-Tetrafluoro-5-trifluoromethyl-1-(4-fluorophenylsulfonylamino)hexyl]-2-thienyl]butyric Acid], the Kb (leukotriene D4) was 398 nM, the “Residual rate (%)” value (human liver microsomes) was 78% and the Kb [1] was 2 nM. It also gave an inhibition in vivo at 0.3 mg/kg [2] of 89% and an ED50 [3] of 1.1 mg/kg.

With O=C(O)CCCc1ccc(C(CCCC(F)(F)C(F)(F)F)NS(=O)(=O)c2ccc(Cl)cc2)cc1 (centres unmarked) [Example 188, 4-[4-[1-(4-Chlorophenylsulfonylamino)-5,5,6,6,6-pentafluorohexyl]phenyl]butyric Acid] the Kb (leukotriene D4) was 200 nM, the “Residual rate (%)” value (human liver microsomes) was 74% and the Kb [1] was 0.794 nM. For the same compound, the inhibition in vivo at 0.3 mg/kg [2] was 88% and the ED50 [3] was 1.6 mg/kg.

O=C(O)CCCc1ccc(C(CCCC(F)(F)C(F)(F)F)NS(=O)(=O)c2ccc(F)cc2)cc1 (centres unmarked) [Example 189, 4-[4-[5,5,6,6,6-Pentafluoro-1-(4-fluorophenylsulfonylamino)hexyl]phenyl]butyric Acid] was tested, and the Kb (leukotriene D4) was 251 nM, the “Residual rate (%)” value (human liver microsomes) was 88% and the Kb [1] was 2.51 nM. It also gave an inhibition in vivo at 0.3 mg/kg [2] of 71% and an ED50 [3] of 0.92 mg/kg.

O=C(O)CCCc1ccc(C(CCC(F)(F)C(F)(F)C(F)(F)F)NS(=O)(=O)c2ccc(F)cc2)cc1 (centres unmarked) [Example 200, 4-[4-[4,4,5,5,6,6,6-Heptafluoro-1-(4-fluorophenylsulfonylamino)hexyl]phenyl]butyric Acid] was tested, and the Kb (leukotriene D4) was 251 nM, the “Residual rate (%)” value (human liver microsomes) was 83% and the Kb [1] was 10 nM. The inhibition in vivo at 0.3 mg/kg [2] was 82% and the ED50 [3] was 0.21 mg/kg.

In the case of O=C(O)CCCc1ccc(C(CCCC(F)(F)C(F)(F)C(F)(F)F)NS(=O)(=O)c2ccc(F)cc2)cc1 (centres unmarked) [Example 202, 4-[4-[5,5,6,6,7,7,7-Heptafluoro-1-(4-fluorophenylsulfonylamino)heptyl]phenyl]butyric Acid], the Kb (leukotriene D4) is reported as 794 nM, the “Residual rate (%)” value (human liver microsomes) is reported as 93% and the Kb [1] is reported as 12.6 nM. The inhibition in vivo at 0.3 mg/kg [2] was 85% and the ED50 [3] was 0.97 mg/kg.

In the case of CCCCCC(NS(=O)(=O)c1ccc(Cl)cc1)c1ccc(CCCC(=O)O)cc1 (centres unmarked) [Reference compound 1, 4-[4-[1-(4-Chlorophenylsulfonylamino)hexyl]phenyl]butyric acid, reference compound], the Kb (leukotriene D4) is reported as 200 nM, the “Residual rate (%)” value (human liver microsomes) is reported as 53% and the Kb [1] is reported as 1 nM. For the same compound, the inhibition in vivo at 0.3 mg/kg [2] was 85% and the ED50 [3] was 8.1 mg/kg.
